Laboratory results published in patent US12121498B2 (priority 2018, dated 2024).

Legend:
[1] = in vivo; assay type: in vivo, SD rats; details: rats; for concentration at 5 min / concentration at 15 min / concentration at 30 min / concentration at 1 h / concentration at 2 h / concentration at 4 h: SD, rat, in vivo, iv, average, read-out: Drug concentrations in brain tissue; for concentration at 5 min: 5 min after administration; for concentration at 15 min: 15 min after administration; for concentration at 30 min: 30 min after administration; for concentration at 1 h: 1 h after administration; for concentration at 2 h: 2 h after administration; for concentration at 4 h: 4 h after administration
Description: 1. Comparative Assay for the Distribution of Compound XA-1-7 and Dipropofol (3,3′,5,5′-Tetraisopropyl Biphenyl-4,4′-Diol) in the Brain Tissue of Rats after Intravenous Administration
72 SD rats, each weighing 200 to 220 g, were randomly divided into 12 groups (6 per group at a time), and fasted for 12 hours before administration. Compound XA-1-7 or dipropofol was injected intravenously at a dose of 45 mg/kg, and the rats were sacrificed at 5 min, 15 min, 30 min, 1 h, 2 h, and 4 h after administration, immediately after which the brain tissue was removed, rinsed with ice-cold distilled water, blotted up, and cryopreserved at −40° C. The concentrations of Compound XA-1-7 or dipropofol in the brain tissue of rats at different time points after administration were measured by LC-MS/MS.

[2] = target: GABAA, Chloride Channel, TBPS; test: Radioligand ([35S]TBPS)-receptor competitive binding assay for GABAA receptor; design: species or system Rat; details: for IC50: [35S]TBPS, test concentration 30, 10, 3, 1, 0.3 uM; for Affinity for the GABAA receptor: result in words, compared with dipropofol

CCCc1cc(-c2cc(C(C)C)c(O)c(C(C)C)c2)cc(CCC)c1O [Compound 1, 3,5-diisopropyl-3′,5′-dipropyl-[1,1′-biphenyl]-4,4′-diol]
concentration at 5 min ([1]; i.v. 45 mg/kg): 37600 ng/g
concentration at 15 min ([1]; i.v. 45 mg/kg): 39600 ng/g
concentration at 30 min ([1]; i.v. 45 mg/kg): 38100 ng/g
concentration at 1 h ([1]; i.v. 45 mg/kg): 33900 ng/g
concentration at 2 h ([1]; i.v. 45 mg/kg): 24600 ng/g
concentration at 4 h ([1]; i.v. 45 mg/kg): 6870 ng/g
Concentration in the brain tissue relative to that of the dipropofol ([1]; 5 minutes after intravenous injection, 45 mg/kg): about 3 times
AUC0-4 h in the brain tissue relative to that of the dipropofol ([1]; i.v. 45 mg/kg): about 1.36 times
Peak time of the concentration in the brain tissue ([1]; i.v. 45 mg/kg): 15 min
Delivering speed into the brain and level in the brain compared with dipropofol ([1]; intravenous administration at the same dosage, result in words): significantly higher
IC50 [2]: 1820 nM
Affinity for the GABAA receptor [2]: high affinity

CCCc1cc(-c2cc(C(C)C)c(O)c(C(C)C)c2)cc(C(C)C)c1O [Compound 2, 3,3′,5-triisopropyl-5′-propyl-biphenyl-4,4′-diol]
IC50 [2]: 2110 nM
Affinity for the GABAA receptor [2]: high affinity

CCCc1cc(-c2cc(CCC)c(O)c(C(C)C)c2)cc(CCC)c1O [Compound 3, 3-isopropyl-3′,5,5′-tripropyl-biphenyl-4,4′-diol]
IC50 [2]: 2690 nM
Affinity for the GABAA receptor [2]: high affinity

CC(C)c1cc(-c2cc(C(C)C)c(O)c(C(C)C)c2)cc(C(C)C)c1O [Dipropofol, 3,3′,5,5′-tetraisopropylbiphenyl-4,4′-diol, reference compound]
concentration at 5 min ([1]; i.v. 45 mg/kg): 12800 ng/g
concentration at 15 min ([1]; i.v. 45 mg/kg): 24100 ng/g
concentration at 30 min ([1]; i.v. 45 mg/kg): 32500 ng/g
concentration at 1 h ([1]; i.v. 45 mg/kg): 26600 ng/g
concentration at 2 h ([1]; i.v. 45 mg/kg): 17900 ng/g
concentration at 4 h ([1]; i.v. 45 mg/kg): 5520 ng/g
Peak time of the concentration in the brain tissue ([1]; i.v. 45 mg/kg): 30 min
IC50 [2]: 2060 nM
